What was measured:
C. albicans = assay: Candidiasis of oral mucosal surfaces and intestinal tract in mice (proposed); type: in vivo, Candida albicans; settings: C. albicans in drinking water
Excerpt: Dissemination to livers occurs and is 100% on days 5 to 15. The median kidney or liver CFU were 2 or 3 log10 CFU, respectively, on day 15; despite this, mortality was low through 21 days of infection.

[1] = tested on: Influenza virus B/Yamanashi/166/98; assay: Influenza vaccination model in mice, c-diGMP as adjuvant (proposed); type: in vivo; settings: two vaccinations 3 weeks apart
S. aureus Newbould 305 = assay: Mouse model of S. aureus-induced mastitis, prophylactic pre-treatment; type: in vivo; settings: for reduction of the mean bacterial CFU in tissues compared to untreated control: lactating CD-1 mice, 10 h infection
Method: The well-characterized mouse model of S. aureus-induced mastitis (see Brouillette et al., 2005 for review) was used to evaluate the capacity of c-di-GMP to act as a prophylactic agent. S. aureus is a Gram-positive bacterial pathogen. The protocol used here is similar to that described in a previous study (Brouillette et al., 2005), except that the c-di-GMP molecule was administered before infection of mammary glands, instead of after, in order to evaluate its prophylactic capacity. […] For inoculation, 100 cfu of S. aureus Newbould 305 (ATCC 29740) were injected in each gland and the colonization allowed for 10 h. Raw bacterial cfu counts obtained after plating serial logarithmic dilutions of mammary gland homogenates were transformed in base-10 logarithm values. The experiment was repeated and data combined for a total of 9 mice (18 glands) per group. Since values passed the normality test, bacterial counts were analyzed for statistical significance using the One-way analysis of variance test combined with the Tukey post test (GraphPad Instat, version 3.06). The institutional ethics committee on animal experimentation of the Faculté des sciences of Université de Sherbrooke approved these experiments and were carried out following the guidelines of the Canadian Council on Animal Care.

Human immature DCs = assay: Maturation of human monocyte-derived DCs (surface markers, flow cytometry); type: cell-based; settings: 24 hours
Method: Buffy coats were obtained from healthy human volunteers and fractionated over Histopaque-1077. The peripheral blood mononuclear cells (PBMC) layer was recovered and erythrocyte-depleted by incubation in red blood cell lysis buffer for 5 minutes at room temperature. PBMCs were cultured in complete medium (RPMI 1640, 1% L-glutamine, 1% penicillin/streptomycin, and 10% low endotoxin FCS) for 2 hours in T75 flasks (Corning). Following incubation, nonadherent cells were removed by three washes with 1× PBS (Invitrogen, Carlsbad, Calif.). The remaining adherent cells were then cultured in complete medium supplemented with GM-CSF and IL-4 (50 ng/mL each). Human and murine IL-4 and GM-CSF were purchased from Peprotech (Rocky Hill, N.J.). On day 2 and day 4, the DC cultures received an additional dose of GM-CSF and IL-4 (50 ng/mL each). On day 5, non-adherent DC were harvested by gentle pipetting, counted, and plated in fresh medium containing GM-CSF and IL-4 (50 ng/mL each). […]
Surface expression of various markers was assessed using CellQuest analysis software on a FACScalibur (Becton-Dickinson) flow cytometer. Surface expression was determined using the following FITC- and PE-conjugated antibodies: CD86-FITC (Research Diagnostics), CCR7-PE (R&D Systems), CD80-FITC, CD83-FITC, HLA-DR-FITC (BD Pharmingen). The isotype control antibodies were used accordingly in all experiments and were purchased from Pharmingen. Human DC were incubated in 1% human AB serum/PBS and were incubated with rat anti-CD16/CD32 (BD Phamingen) to block non-specific binding. Total RNA was extracted using the RNeasy kit according to the manufacturer's protocol (Qiagen). […] Emitted fluorescence for each reaction was measured during the annealing/extension phase, and amplification plots were analyzed using the MX4000 software version 3.0 (Stratagene). Quantity values (i.e., copies) for gene expression were generated by comparison of the fluorescence generated by each sample with standard curves of known quantities. Next, the calculated number of copies was divided by the number of copies of the housekeeping gene GAPDH.

p38 MAPK = assay: Western blot signaling in human macrophages: p38 MAPK; type: cell-based; settings: human M-CSF-induced monocyte-derived macrophages
Method: Preparation of macrophages was performed as previously described (Akagawa et al., 1996). Briefly, fully differentiated macrophages from human PBMC were isolated from leukapheresis preparations obtained by the Blood Bank, Clinical Center, National Institutes of Health, Bethesda, Md. The leukocyte-rich preparation was overlaid on Accu-prep in 50 ml tubes and the tubes were centrifuged at 800 × g for 20 min at room temperature. PBMC fractions were collected, washed once with PBS at room temperature and twice with complete medium at 4° C. and resuspended in the same medium. Monocytes were further purified by using iso-osmotic Percoll gradient (Amersham Biosciences). At this stage, the purity of monocytes was higher than 90%. One and half million cells were placed on a 12-well plate in 1.5 ml RPMI1640 containing 50 ng/ml human M-CSF. On day 4, 1 ml of the medium was replaced with 1 ml of fresh medium containing 50 ng human M-CSF. On day 7, non-adherent cells were washed out and adherent cells were used as macrophages.
Western blot analysis of macrophages was performed as previously described (Matsuyama et al., 2003). Briefly, prepared macrophages were starved in RPMI 1640 without FCS for 10 h. […] Proteins were analyzed on 12% polyacrylamide gels by SDS-PAGE and transferred electrophoretically to nitrocellulose membranes at 150 mA for 1 h in a semi-dry system. […]

[2] = 200 nmol intramammary 12 h and 6 h prior to challenge, P<0.001

Nc1nc(=O)c2ncn([C@@H]3OC4COP(=O)(O)O[C@H]5[C@@H](O)[C@H](n6cnc7c(=O)nc(N)[nH]c76)O[C@@H]5COP(=O)(O)OC4C3O)c2[nH]1 (stereo partly drawn) [c-di-GMP, Bis(3′→5′)-cyclic diguanylic acid]
mucosal infection and dissemination compared to untreated controls (C. albicans): reduce mucosal infection
survival after challenge [1]: greater survival
reduction of the mean bacterial CFU in tissues compared to untreated control (S. aureus Newbould 305; 50 nmol intramammary 12 h and 6 h prior to challenge, P<0.05): 1.5 log
reduction in CFUs in tissues (S. aureus Newbould 305; [2]): 10,000 fold
reduction of the mean bacterial CFU in tissues compared to untreated control (S. aureus Newbould 305; [2]): 3.8 log
CD83 expression, net MFI (Human immature DCs; 200 uM c-di-GMP or LPS (positive control), untreated net MFI=4.89, FIG. 10A): 63.34
expression of maturation markers CD80, CD86, CCR7, and MHC class II (Human immature DCs; 200 uM, FIG. 10C): increase
concentration at which significant increases in surface CD83 begin (Human immature DCs; 5 to 500 uM, FIG. 10B): 32 µM
phosphorylation of p38 MAPK (p38 MAPK): no phosphorylation
